# Data reported in ChEMBL document CHEMBL4804286, “3-amino-4-(4-(4 (dimethylcarbamoyl) phenyl)-1,4-diazepan-1-yl) thieno [2,3-b] pyridine-2-carboxamide for use in cancer therapy and formulations comprising the same” (2020).
# Several values for one entry are separate records, joined by “and”; a condition that tells them apart may be missing. Identical values can stand only once. Activity calls are given as the source filed them. No cut-off for these calls is given here.
# Assays:
# [1] = test system: Phosphatidylinositol 4,5-bisphosphate 3-kinase catalytic subunit alpha isoform (Homo sapiens), P42336 [E545K]; experiment: Inhibition of human PIK3CA E545K mutant assessed as percent of control at 2000 nM by KINOMEscan assay relative to control; parameters: scale not given: the % may be the effect or the level left
# Chain of Phosphatidylinositol 4,5-bisphosphate 3-kinase catalytic subunit alpha isoform (Homo sapiens), P42336 [E545K] (P42336 whole entry E545K, the tested form may be a part, canonical isoform): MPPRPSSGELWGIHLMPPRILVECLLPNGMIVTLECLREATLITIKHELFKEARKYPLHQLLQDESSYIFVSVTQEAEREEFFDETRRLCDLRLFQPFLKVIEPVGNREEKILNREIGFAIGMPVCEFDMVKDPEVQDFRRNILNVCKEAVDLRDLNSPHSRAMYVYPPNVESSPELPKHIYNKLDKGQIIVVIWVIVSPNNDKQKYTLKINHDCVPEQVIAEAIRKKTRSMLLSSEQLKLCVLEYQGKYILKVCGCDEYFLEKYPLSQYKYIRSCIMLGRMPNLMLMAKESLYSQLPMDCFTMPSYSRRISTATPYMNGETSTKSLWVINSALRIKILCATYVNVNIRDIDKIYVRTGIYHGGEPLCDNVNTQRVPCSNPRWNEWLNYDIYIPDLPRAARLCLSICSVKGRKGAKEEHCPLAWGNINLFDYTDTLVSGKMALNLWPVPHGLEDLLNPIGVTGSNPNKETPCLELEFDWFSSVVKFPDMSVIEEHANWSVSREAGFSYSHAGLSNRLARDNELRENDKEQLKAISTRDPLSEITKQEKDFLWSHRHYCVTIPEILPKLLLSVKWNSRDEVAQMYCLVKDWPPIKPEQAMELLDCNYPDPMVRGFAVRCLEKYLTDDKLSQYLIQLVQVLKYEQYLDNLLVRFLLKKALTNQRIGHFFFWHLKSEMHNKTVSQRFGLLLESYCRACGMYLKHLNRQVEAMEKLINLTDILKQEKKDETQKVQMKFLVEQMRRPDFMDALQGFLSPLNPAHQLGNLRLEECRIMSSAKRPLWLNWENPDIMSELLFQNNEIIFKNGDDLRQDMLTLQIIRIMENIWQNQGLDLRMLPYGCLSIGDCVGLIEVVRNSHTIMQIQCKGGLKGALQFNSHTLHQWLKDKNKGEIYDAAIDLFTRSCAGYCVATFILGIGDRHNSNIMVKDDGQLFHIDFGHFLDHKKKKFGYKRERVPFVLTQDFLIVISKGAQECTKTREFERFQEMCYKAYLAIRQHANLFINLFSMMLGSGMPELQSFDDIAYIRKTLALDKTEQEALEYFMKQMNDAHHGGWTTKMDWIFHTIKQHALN
# [2] = target: Non-receptor tyrosine-protein kinase TYK2 (Homo sapiens) (UniProt P29597); experiment: Inhibition of human TYK2 JH2 pseudokinase domain assessed as percent of control at 2000 nM by KINOMEscan assay relative to control; parameters: scale not given: the % may be the effect or the level left
# [3] = target: Cyclin-dependent kinase-like 3 (Homo sapiens) (UniProt Q8IVW4); experiment: Inhibition of human CDKL3 assessed as percent of control at 2000 nM by KINOMEscan assay relative to control; parameters: scale not given: the % may be the effect or the level left
# [4] = target: Transient receptor potential cation channel subfamily M member 6 (Homo sapiens) (UniProt Q9BX84); experiment: Inhibition of human TRPM6 assessed as percent of control at 2000 nM by KINOMEscan assay relative to control; parameters: scale not given: the % may be the effect or the level left
# CWR22R = experiment: Antitumor activity against human 22Rv1 cells expressing AR-V7 xenografted in male nude mouse assessed as suppression of tumor growth at 25 mg/kg, administered twice a day for 40 days; assay type: functional, organism-based
# [5] = target: Serine/threonine-protein kinase PAK 5 (Homo sapiens) (UniProt Q9P286); experiment: Inhibition of human PAK7 assessed as percent of control at 2000 nM by KINOMEscan assay relative to control; parameters: scale not given: the % may be the effect or the level left
# Chain of Serine/threonine-protein kinase PAK 5 (Homo sapiens) (Q9P286 whole entry, looked up): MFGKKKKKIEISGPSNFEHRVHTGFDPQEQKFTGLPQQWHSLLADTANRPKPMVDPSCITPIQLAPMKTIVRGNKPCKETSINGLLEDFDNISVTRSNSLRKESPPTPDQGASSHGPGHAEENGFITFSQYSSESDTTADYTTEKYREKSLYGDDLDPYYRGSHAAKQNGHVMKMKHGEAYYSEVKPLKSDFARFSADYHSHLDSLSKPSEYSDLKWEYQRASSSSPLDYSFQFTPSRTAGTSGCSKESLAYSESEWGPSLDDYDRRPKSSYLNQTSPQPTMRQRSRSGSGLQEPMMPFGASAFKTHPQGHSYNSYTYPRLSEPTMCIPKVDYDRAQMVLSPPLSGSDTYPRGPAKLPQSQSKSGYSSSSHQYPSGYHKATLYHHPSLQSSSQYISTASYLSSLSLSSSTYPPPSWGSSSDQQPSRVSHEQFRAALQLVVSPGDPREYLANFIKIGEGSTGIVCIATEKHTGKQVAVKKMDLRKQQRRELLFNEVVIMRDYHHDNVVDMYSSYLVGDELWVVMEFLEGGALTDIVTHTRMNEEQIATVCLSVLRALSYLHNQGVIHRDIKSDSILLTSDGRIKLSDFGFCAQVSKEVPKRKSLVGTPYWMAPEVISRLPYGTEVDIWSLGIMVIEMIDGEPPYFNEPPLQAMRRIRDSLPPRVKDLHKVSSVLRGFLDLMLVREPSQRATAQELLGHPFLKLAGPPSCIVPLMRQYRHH
# [6] = target: Mitogen-activated protein kinase kinase kinase 6 (Homo sapiens) (UniProt O95382); experiment: Inhibition of human ASK2 assessed as percent of control at 2000 nM by KINOMEscan assay relative to control; parameters: scale not given: the % may be the effect or the level left
# [7] = target: Activin receptor type-2A (Homo sapiens) (UniProt P27037); experiment: Inhibition of human ACVR2A assessed as percent of control at 2000 nM by KINOMEscan assay relative to control; parameters: scale not given: the % may be the effect or the level left
# [8] = target: Dual specificity tyrosine-phosphorylation-regulated kinase 2 (Homo sapiens) (UniProt Q92630); experiment: Inhibition of human DYRK2 assessed as percent of control at 2000 nM by KINOMEscan assay relative to control; parameters: scale not given: the % may be the effect or the level left
# Chain of Dual specificity tyrosine-phosphorylation-regulated kinase 2 (Homo sapiens) (Q92630 whole entry): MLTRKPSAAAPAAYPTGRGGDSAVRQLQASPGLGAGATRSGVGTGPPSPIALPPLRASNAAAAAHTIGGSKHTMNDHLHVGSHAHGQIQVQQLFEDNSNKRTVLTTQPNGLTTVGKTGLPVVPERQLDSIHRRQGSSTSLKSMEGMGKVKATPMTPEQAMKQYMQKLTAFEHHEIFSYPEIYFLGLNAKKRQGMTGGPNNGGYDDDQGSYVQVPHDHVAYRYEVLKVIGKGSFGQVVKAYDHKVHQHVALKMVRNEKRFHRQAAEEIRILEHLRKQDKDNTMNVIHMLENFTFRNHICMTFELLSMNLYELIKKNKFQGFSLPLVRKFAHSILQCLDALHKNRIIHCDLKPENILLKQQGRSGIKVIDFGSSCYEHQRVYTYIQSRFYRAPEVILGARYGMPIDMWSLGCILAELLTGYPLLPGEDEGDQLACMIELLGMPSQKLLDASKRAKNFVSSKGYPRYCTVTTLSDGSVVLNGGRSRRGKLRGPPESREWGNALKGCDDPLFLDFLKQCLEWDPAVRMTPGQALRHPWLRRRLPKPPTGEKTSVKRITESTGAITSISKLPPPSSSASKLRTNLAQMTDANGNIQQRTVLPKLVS
# [9] = target: Serine/threonine-protein kinase 32C (Homo sapiens) (UniProt Q86UX6); experiment: Inhibition of human YANK3 assessed as percent of control at 2000 nM by KINOMEscan assay relative to control; parameters: scale not given: the % may be the effect or the level left
# [10] = target: Serine/threonine-protein kinase Sgk1 (Homo sapiens) (UniProt O00141); experiment: Inhibition of human SGK assessed as percent of control at 2000 nM by KINOMEscan assay relative to control; parameters: scale not given: the % may be the effect or the level left
# [11] = target: Cyclin-dependent kinase 4 (Homo sapiens) (UniProt P11802); experiment: Inhibition of human CDK4 assessed as percent of control at 2000 nM by KINOMEscan assay relative to control; parameters: scale not given: the % may be the effect or the level left
# Chain of Cyclin-dependent kinase 4 (Homo sapiens) (P11802 whole entry): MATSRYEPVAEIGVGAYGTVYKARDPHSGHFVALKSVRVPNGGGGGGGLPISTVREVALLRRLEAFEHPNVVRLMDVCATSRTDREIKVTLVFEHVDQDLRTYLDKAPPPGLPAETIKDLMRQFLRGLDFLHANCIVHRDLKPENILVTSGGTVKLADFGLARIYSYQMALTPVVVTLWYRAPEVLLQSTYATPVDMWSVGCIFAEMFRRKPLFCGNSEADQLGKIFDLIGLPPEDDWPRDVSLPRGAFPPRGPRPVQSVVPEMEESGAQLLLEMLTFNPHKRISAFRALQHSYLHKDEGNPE
# [12] = target: Fibroblast growth factor receptor 1 (Homo sapiens) (UniProt P11362); experiment: Inhibition of human FGFR1 assessed as percent of control at 2000 nM by KINOMEscan assay relative to control; parameters: scale not given: the % may be the effect or the level left
# [13] = target: Mitogen-activated protein kinase kinase kinase 14 (Homo sapiens) (UniProt Q99558); experiment: Inhibition of human NIK assessed as percent of control at 2000 nM by KINOMEscan assay relative to control; parameters: scale not given: the % may be the effect or the level left
# [14] = target: Ephrin type-A receptor 7 (Homo sapiens) (UniProt Q15375); experiment: Inhibition of human EPHA7 assessed as percent of control at 2000 nM by KINOMEscan assay relative to control; parameters: scale not given: the % may be the effect or the level left
# [15] = target: TGF-beta receptor type-1 (Homo sapiens) (UniProt P36897); experiment: Inhibition of human TGFBR1 assessed as percent of control at 2000 nM by KINOMEscan assay relative to control; parameters: scale not given: the % may be the effect or the level left
# [16] = target: Aurora kinase A (Homo sapiens) (UniProt O14965); experiment: Inhibition of human AURKA assessed as percent of control at 2000 nM by KINOMEscan assay relative to control; parameters: scale not given: the % may be the effect or the level left
# [17] = test system: ALK tyrosine kinase receptor (Homo sapiens), Q9UM73 [C1156Y]; experiment: Inhibition of human ALK C1156Y mutant assessed as percent of control at 2000 nM by KINOMEscan assay relative to control; parameters: scale not given: the % may be the effect or the level left
# Chain of ALK tyrosine kinase receptor (Homo sapiens), Q9UM73 [C1156Y] (Q9UM73 whole entry C1156Y, looked up): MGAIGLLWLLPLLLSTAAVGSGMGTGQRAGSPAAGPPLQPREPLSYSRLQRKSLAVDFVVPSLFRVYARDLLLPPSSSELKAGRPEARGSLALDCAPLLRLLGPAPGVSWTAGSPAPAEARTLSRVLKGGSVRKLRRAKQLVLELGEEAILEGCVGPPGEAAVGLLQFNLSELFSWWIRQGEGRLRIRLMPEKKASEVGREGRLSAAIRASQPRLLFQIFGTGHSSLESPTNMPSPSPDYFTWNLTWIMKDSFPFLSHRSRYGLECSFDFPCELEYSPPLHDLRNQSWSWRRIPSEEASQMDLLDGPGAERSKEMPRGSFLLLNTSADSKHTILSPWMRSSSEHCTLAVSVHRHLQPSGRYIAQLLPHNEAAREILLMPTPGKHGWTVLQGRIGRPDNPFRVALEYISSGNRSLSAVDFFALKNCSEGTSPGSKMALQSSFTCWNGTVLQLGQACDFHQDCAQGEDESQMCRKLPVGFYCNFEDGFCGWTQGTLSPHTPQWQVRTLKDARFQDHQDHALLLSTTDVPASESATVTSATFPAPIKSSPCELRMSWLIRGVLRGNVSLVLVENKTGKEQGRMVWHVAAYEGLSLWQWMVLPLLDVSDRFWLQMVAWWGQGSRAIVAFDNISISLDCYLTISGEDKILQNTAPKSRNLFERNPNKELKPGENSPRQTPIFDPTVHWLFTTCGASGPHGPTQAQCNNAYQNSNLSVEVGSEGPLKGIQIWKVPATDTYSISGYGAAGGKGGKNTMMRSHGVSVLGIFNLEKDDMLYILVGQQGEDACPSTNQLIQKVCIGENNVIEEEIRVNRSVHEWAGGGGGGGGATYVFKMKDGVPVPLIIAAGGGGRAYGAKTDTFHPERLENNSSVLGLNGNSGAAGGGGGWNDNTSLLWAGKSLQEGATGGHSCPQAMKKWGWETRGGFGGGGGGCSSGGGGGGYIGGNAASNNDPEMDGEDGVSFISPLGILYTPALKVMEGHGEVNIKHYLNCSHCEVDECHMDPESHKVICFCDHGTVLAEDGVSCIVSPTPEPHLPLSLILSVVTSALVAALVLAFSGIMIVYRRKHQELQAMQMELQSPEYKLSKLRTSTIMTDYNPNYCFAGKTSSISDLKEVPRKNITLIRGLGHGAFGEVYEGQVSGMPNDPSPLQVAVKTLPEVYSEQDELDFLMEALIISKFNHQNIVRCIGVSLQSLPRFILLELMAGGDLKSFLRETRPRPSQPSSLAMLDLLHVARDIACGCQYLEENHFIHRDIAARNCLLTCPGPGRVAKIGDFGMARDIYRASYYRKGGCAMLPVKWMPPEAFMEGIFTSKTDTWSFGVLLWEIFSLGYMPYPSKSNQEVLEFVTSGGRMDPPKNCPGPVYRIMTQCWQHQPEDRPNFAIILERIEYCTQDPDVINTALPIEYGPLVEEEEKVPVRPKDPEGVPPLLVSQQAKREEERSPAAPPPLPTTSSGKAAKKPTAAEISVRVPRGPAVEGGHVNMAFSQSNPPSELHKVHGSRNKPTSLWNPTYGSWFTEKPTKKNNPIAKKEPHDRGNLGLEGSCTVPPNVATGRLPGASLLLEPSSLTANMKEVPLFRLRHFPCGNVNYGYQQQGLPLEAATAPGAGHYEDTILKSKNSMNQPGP
# [18] = target: Activated CDC42 kinase 1 (Homo sapiens) (UniProt Q07912); experiment: Inhibition of human TNK2 assessed as percent of control at 2000 nM by KINOMEscan assay relative to control; parameters: scale not given: the % may be the effect or the level left
# [19] = target: Tyrosine-protein kinase TXK (Homo sapiens) (UniProt P42681); experiment: Inhibition of human TXK assessed as percent of control at 2000 nM by KINOMEscan assay relative to control; parameters: scale not given: the % may be the effect or the level left
# [20] = target: Serine/threonine-protein kinase 17A (Homo sapiens) (UniProt Q9UEE5); experiment: Inhibition of human DRAK1 assessed as percent of control at 2000 nM by KINOMEscan assay relative to control; parameters: scale not given: the % may be the effect or the level left
# [21] = target: Myosin light chain kinase, smooth muscle (Homo sapiens) (UniProt Q15746); experiment: Inhibition of human MYLK assessed as percent of control at 2000 nM by KINOMEscan assay relative to control; parameters: scale not given: the % may be the effect or the level left
# [22] = target: Dual specificity mitogen-activated protein kinase kinase 2 (Homo sapiens) (UniProt P36507); experiment: Inhibition of human MEK2 assessed as percent of control at 2000 nM by KINOMEscan assay relative to control; parameters: scale not given: the % may be the effect or the level left
# [23] = target: Serine/threonine-protein kinase BRSK1 (Homo sapiens) (UniProt Q8TDC3); experiment: Inhibition of human BRSK1 assessed as percent of control at 2000 nM by KINOMEscan assay relative to control; parameters: scale not given: the % may be the effect or the level left
# [24] = target: Serine/threonine-protein kinase LATS1 (Homo sapiens) (UniProt O95835); experiment: Inhibition of human LATS1 assessed as percent of control at 2000 nM by KINOMEscan assay relative to control; parameters: scale not given: the % may be the effect or the level left
# [25] = target: Ribosomal protein S6 kinase alpha-4 (Homo sapiens) (UniProt O75676); experiment: Inhibition of human N-terminal RPS6KA4 kinase domain assessed as percent of control at 2000 nM by KINOMEscan assay relative to control; parameters: scale not given: the % may be the effect or the level left
# Chain of Ribosomal protein S6 kinase alpha-4 (Homo sapiens) (O75676 whole entry, looked up, the tested form may be a part): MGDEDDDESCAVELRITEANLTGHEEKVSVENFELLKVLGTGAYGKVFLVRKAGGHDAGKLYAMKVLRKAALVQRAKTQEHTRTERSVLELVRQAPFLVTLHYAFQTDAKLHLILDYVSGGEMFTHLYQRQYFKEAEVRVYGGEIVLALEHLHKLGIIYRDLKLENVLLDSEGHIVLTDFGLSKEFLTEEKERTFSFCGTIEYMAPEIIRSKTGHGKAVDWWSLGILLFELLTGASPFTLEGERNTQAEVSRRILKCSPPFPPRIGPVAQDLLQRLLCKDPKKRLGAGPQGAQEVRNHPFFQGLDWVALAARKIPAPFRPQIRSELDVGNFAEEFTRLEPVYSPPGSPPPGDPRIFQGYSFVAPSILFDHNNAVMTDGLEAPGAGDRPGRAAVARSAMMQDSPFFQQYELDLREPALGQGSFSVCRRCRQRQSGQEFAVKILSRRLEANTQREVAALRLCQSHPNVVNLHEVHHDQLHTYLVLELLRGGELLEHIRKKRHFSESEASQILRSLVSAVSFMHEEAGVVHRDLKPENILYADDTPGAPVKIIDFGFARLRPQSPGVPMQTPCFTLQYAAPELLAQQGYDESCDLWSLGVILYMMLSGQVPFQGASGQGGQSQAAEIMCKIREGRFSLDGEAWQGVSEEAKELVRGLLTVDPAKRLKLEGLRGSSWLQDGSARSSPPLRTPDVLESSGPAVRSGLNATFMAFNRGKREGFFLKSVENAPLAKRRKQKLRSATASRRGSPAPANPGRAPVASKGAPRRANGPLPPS
# [26] = target: Tyrosine-protein kinase Fgr (Homo sapiens) (UniProt P09769); experiment: Inhibition of human FGR assessed as percent of control at 2000 nM by KINOMEscan assay relative to control; parameters: scale not given: the % may be the effect or the level left
# [27] = target: Serine/threonine-protein kinase N2 (Homo sapiens) (UniProt Q16513); experiment: Inhibition of human PKN2 assessed as percent of control at 2000 nM by KINOMEscan assay relative to control; parameters: scale not given: the % may be the effect or the level left
# [28] = target: Serine/threonine-protein kinase PLK1 (Homo sapiens) (UniProt P53350); experiment: Inhibition of human PLK1 assessed as percent of control at 2000 nM by KINOMEscan assay relative to control; parameters: scale not given: the % may be the effect or the level left
# [29] = target: Phosphatidylinositol 5-phosphate 4-kinase type-2 beta (Homo sapiens) (UniProt P78356); experiment: Inhibition of human PIP5K2B assessed as percent of control at 2000 nM by KINOMEscan assay relative to control; parameters: scale not given: the % may be the effect or the level left
# [30] = target: Bone morphogenetic protein receptor type-2 (Homo sapiens) (UniProt Q13873); experiment: Inhibition of human BMPR2 assessed as percent of control at 2000 nM by KINOMEscan assay relative to control; parameters: scale not given: the % may be the effect or the level left
smiles,measurement,setting,value
CN(C)C(=O)c1ccc(N2CCCN(c3ccnc4sc(C(N)=O)c(N)c34)CC2)cc1,Activity,[1],96% and 91%
same,Activity,[2],73% and 59%
same,Activity,[3],100%
same,Activity,[4],100% and 80%
same,Activity,CWR22R,Active
same,Activity,[5],100% and 80%
same,Activity,[6],90% and 88%
same,Activity,[7],95% and 92%
same,Activity,[8],100% and 97%
same,Activity,[9],81% and 97%
same,Activity,[10],86% and 83%
same,Activity,[11],73% and 71%
same,Activity,[12],98% and 92%
same,Activity,[13],100% and 97%
same,Activity,[14],92% and 81%
same,Activity,[15],100%
same,Activity,[16],98% and 99%
same,Activity,[17],100% and 78%
same,Activity,[18],100%
same,Activity,[19],93% and 100%
same,Activity,[20],100%
same,Activity,[21],74% and 71%
same,Activity,[22],88% and 82%
same,Activity,[23],86% and 97%
same,Activity,[24],89% and 97%
same,Activity,[25],96% and 100%
same,Activity,[26],100%
same,Activity,[27],100%
same,Activity,[28],95% and 89%
same,Activity,[29],92% and 95%
same,Activity,[30],79% and 88%
